Read-outs that look alike come from different tables or passages of the source.

The test system of series [1] is cellular DNA of tumor and normal rectal mucosa. Kind of series: Clinical trial of ci BUdR in locally advanced cervical cancer: DNA incorporation. Format: in vivo, human.
Series [2] shares this test system. To be noted: cited from earlier work.
Series [3] concerns cellular DNA of tumor and normal tissues. Kind of series: Clinical Phase I/II trials of ci IUdR + RT: % IUdR-DNA cellular incorporation, plasma level, toxicity. Format: in vivo, human. The procedure:
In the prior clinical Phase I and II trials of continuous intravenous infusions of IUdR+RT for high-grade gliomas (Table 1), high-grade sarcomas (Table 2), in patients with liver metastases for colorectal cancer, and in patients with head and neck cancers, the % IUdR-DNA cellular incorporation was measured in tumor tissue as well as normal tissues, including normal liver and in circulating blood cells (granulocytes).

Series [4] is described as follows: in vivo. The procedure:
No further dose escalations were used because of the increased risk of pulmonary aspiration with larger drug volumes (≥2000 mg/kg/d).

The conditions of series [5]: IV IUdR.
For series [6], the system named is high-grade primary brain tumors. To be noted: cited from earlier work; for Median survival (Months): RT + IUdR.
The test system of series [7] is high-grade sarcomas. To be noted: cited from earlier work.
Series [8] deals with cellular DNA of tumor and normal tissues. To be noted: cited from earlier work.
For series [9] the following is noted: IV or IA IUdR; cited from earlier work.
Series [10] relates to human bladder cancer cell line. The note with it: IUdR for 48 hours prior to one-hour exposure to cisplatin; cited from earlier work.
Series [11] has as its system human bladder and cervical cancer cells. To be noted: cited from earlier work.

For `O=c1[nH]c(=O)n([C@H]2C[C@H](O)[C@@H](CO)O2)cc1Br` [BUdR, bromodeoxyuridine], the “ratio of tumor to rectum” value in series [1] was 1.5-1.8 fold. Also, the “tumor cell IUdR-DNA incorporation” value in [2] (ci BUdR 1000 mg/M^2/day×4 days, Day 5) is reported as 5-8%. In addition, the “IUdR-DNA incorporation in adjacent normal rectal mucosa cells” value in series [2] (ci BUdR) is listed as 3-4%.
As for `O=c1[nH]c(=O)n([C@H]2C[C@H](O)[C@@H](CO)O2)cc1I` [IUdR, 5-iodo-2′-deoxyuridine], the DNA-replacement/day in series [3] (ci IUdR 1000 mg/M^2, H&N SCC) is given as 1.3%. Also, the “TI of ci IUdR in the clinical studies” value in series [3] (from % IUdR-DNA incorporation at grade 3 or 4 toxicities) is approximately 1. In series [4] (ci IUdR 100 mg/kg/d, by day 6), this compound registered a weight loss not below 20%. Further, in series [4] (ci IUdR×6-14 days, xenograft studies), the “GI toxicity, body weight loss” value is more than 20%. Also, the MTD at 4 days in [4] (mouse, in vivo, po, 250 mg/kg/d) amounted to 250 mg/kg/day. Also, in [5], the LD50 result is on record as “never reached”. Besides, the “Median survival (Months)” value in series [6] (Anaplastic astrocytomas (Grade 3 of 4), RT alone 24) is recorded as 39 Months; in series [6] (Glioblastoma Multiforme (Grade 4 of 4), RT alone 9), 15 Months. In addition, in series [6] (ci IUdR+RT), the “prolongation of survival compared to RT alone” value is listed as “greater than 50%”. The “Local Control at 2 years” value in series [7] (High grade sarcomas (resectable), RT + IUdR + Surgery, RT + Surgery 25%) is 45%; in series [7] (High grade sarcomas (un-resectable), RT + IUdR, RT alone <10%) it was 60%. In addition, in [8] (5-7 day ci IUdR infusion, locally advanced head & neck cancers), the “% IUdR-DNA levels” value is given as more than 5%. Moreover, the “IUdR-DNA tumor cell levels (plateau)” value in [8] (ci IUdR 1000 mg/M^2, within 5 days, H&N SCC) is recorded as 7.5-8%. Besides, the “steady state plasma concentration” value in series [8] (ci IUdR exposure that produced clinical responses) is 1 µM. In addition, the local control entry in series [8] (ci IUdR+RT, locally advanced head & neck cancers) is on record as “high local control rate”. In addition, the “% IUdR-DNA levels in peripheral granulocytes that predicted systemic bone marrow toxicity” value in series [8] (ci IUdR) was 6%. Moreover, the “plasma level of IUdR to achieve >3% IUdR-DNA cellular incorporation” value in [8] (ci IUdR) was more than 1000 nM. Besides, the “threshold of % IUdR-DNA tumor cell incorporation associated with in vivo radiosensitization” value in series [8] (human, in vivo) was not below 3%. Also, the “toxicities of prolonged ci of IUdR” value in series [8] (human, in vivo) is “myelosuppression and acute GI toxicities”. Besides, in series [8] (patients with head and neck cancers or liver metastases from colorectal cancer), the “% IUdR-DNA cellular incorporation in tumors” value was 5-8%. Further, the “% IUdR-DNA cellular incorporation in adjacent normal liver tissue” value in [8] (patients with liver metastases) was “less than 1%”. For the same compound, in series [9], the plasma half-life is less than 5 min. In series [10], the “dose-modifying factors at 10% survival” value is reported as “up to 3.5”. For the same compound, the radiation sensitizer enhancement entry in series [11] (IUdR (2 μM) + hydroxyurea) is “approximately 1.75”. Moreover, in [11] (IUdR (2 μM) + non-cytotoxic doses of hydroxyurea), the “increase in IdUTP pools and IUdR-DNA incorporation” value is reported as 2 fold.

Source of the values: US11058702B2 (EMEK, Inc., priority 2014, dated 2021).
